Where two headings read alike, the source gives them in different places.
Experiments:
Assay type in all cases: cell-based, Saccharomyces cerevisiae W303
[1] = tested on: promoter of yeast gene YCR102c
Text: (§1) The inventors of the present application understood that the induction of certain yeast genes by toxic substances is caused by the activation of the promoters of the genes by the toxic substances. Thus, the inventors prepared a vector that comprised a polynucleotide sequence comprising the promoter of the yeast gene, which sequence is operably linked to a polynucleotide encoding a marker protein; and transformed yeast cells with the vector. […] The working examples hereinafter illustrate the preparation of such vectors, transformation of yeast cells by use of said vectors, and the detection of toxic substances by use of the transformed cells.
(§2) Promoter assay is a method for determining variations of the level of intracellular genes without destroying cells on the basis of the level of expressed marker genes instead of the expressed mRNA. The gene selected to detect a chemical substance is expressed in the absence of chemical substances, and thus a marker protein also occurs in the absence of chemical substances. In the method according to the present invention, the behavior of yeast genes on the addition of test materials is determined on the basis of the level of expressed marker protein so that the presence or the absence, and the kind of toxic chemical substances are predicted. Thus, it is desired that the production of marker proteins is lower in the absence of chemical substances, and the production of marker proteins is higher in the presence of chemical substances.
(§3) Type YEp shuttle vector pYES2 (pYES2, Cat no: V825-20, Invirtogen Corporation, USA), which can be replicated both in E. coli. and yeast was used as vector (R. W. Old, S. B. Primrose Principles of Gene Manipulation 5th Ed., BAIFUKAN CO., LTD, pp138-165, pp.234-263, 2000). The portion of vector PQBI 63 (Cat no.54-0082, Wako Pure Chemical Industries, Ltd.) corresponding to a marker protein GFP was used as the polynucleotide encoding GFP (SEQ ID No: 6). First, the GFP polynucleotide was inserted into the multiple cloning sites of pYES2 to give a vector. Thereafter, the GALL promoter of pYES2 was replaced with the polynucleotide comprising the promoter sequence of the intended yeast gene YCR102c (SEQ ID No: 2) to give an intended plasmid vector. Suitable restriction enzymes were selected, and the insertion of the polynucleotide comprising GFP and the promoter sequence was conducted.
(§4) Next, the yeast Saccharomyces cerevisiae W303 was transformed with the resultant plasmid vector according to the following procedures: • 1) Incubating the yeast Saccharomyces cerevisiae W303 in 200 ml of SD medium under shaking until OD 660 reaches 0.5; • 2) Suspending the collected cells in 5 ml of TE-buffer; • 3) Adding 250 μL of 2.5M lithium acetate; • 4) Dispending each 300 μl, adding 10 μl of above plasmid vector thereto, then incubating the suspensions at 30° C. for 30 minutes; • 5) Adding 700 μl of 50% PEG4000, and incubating the mixture under shaking at 30° C. for 60 minutes; • 6) Giving heat shock (42° C., 5 minutes), and then immediately cooling the mixture; • 7) Washing the mixture twice with 1M sorbitol; and • 8) Seeding it on agar plates made of minimum essential medium.
(§5) The cells of SC-YCR102C-pQBI as prepared in Example 3 were contacted to one of the following compounds. The yeast cells SC-YCR102C-pQBI were incubated at 25° C. in SD medium (Yeast nitrogen base without amino acids (Difco 0919-15)+glucose+amino acids (adenine, histidine, tryptophan)). One of toxic chemical substances as shown below was added to the cells at logarithmic growth phase, and then the cells were further incubated for two hours.

[2] = tested on: promoter of yeast gene YOR382w
Text: as §1, §2
as §3, with “pQBI” for “PQBI”, “GAL1” for “GALL”, “YOR382w” for “YCR102c”, “3)” for “2)”
as §4
as §5, with “SC-YOR382W-pQBI” for “SC-YCR102C-pQBI”, “4” for “3”

[3] = tested on: promoter of yeast gene YLR303w; conditions: for expression of GFP: SC-YCR303W-pQBI cells (so in the source), summary of Table 14
Text: as §1, §2
as §3, with “pQBI” for “PQBI”, “GAL1” for “GALL”, “YLR303w” for “YCR102c”, “5)” for “2)”
as §4
as §5, with “SC-YCR303W-pQBI” for “SC-YCR102C-pQBI”, “6” for “3”

[4] = cells SC-YCR102C-pQBI, 2 hours incubation with the substance at the concentration printed in its row (column Concentrations), GFP fluorescence vs control without chemical
[5] = cells SC-YOR382W-pQBI, 2 hours incubation with the substance at the concentration printed in its row (column Concentrations), GFP fluorescence vs control without chemical
[6] = cells SC-YCR303W-pQBI (so in the source), 2 hours incubation with the substance at the concentration printed in its row (column Concentrations), GFP fluorescence vs control without chemical
[7] = SC-YOR382W-pQBI cells, summary of Table 12

Molecule	Fluorescence [1, 4]	Fluorescence [2, 5]	Fluorescence [3, 6]	other results
HgCl2 [(3)]	− (the number of the cells having a higher fluorescence than the control was under 1%)	− (the number of the cells having a higher fluorescence than the control was under 1%)	++ (2% or more)	expression of GFP [3]: induced the expression of GFP
O=S(=O)([O-])[O-].[Cu+2] [copper sulfate (II)]				Fluorescence [1]: − (key: −: the number of the cells having a higher fluorescence than the control was under 1%; +: between 1% and 2%; ++: 2% or more); Fluorescence [2]: − (key: −: the number of the cells having a higher fluorescence than the control was under 1%; +: between 1% and 2%; ++: 2% or more); Fluorescence [3]: − (key: −: the number of the cells having a higher fluorescence than the control was under 1%; +: between 1% and 2%; ++: 2% or more)
CN(C)C(=S)SSC(=S)N(C)C [(10), Tetramethylthiuram disulfide]				expression of GFP ([1]; SC-YCR102C-pQBI cells, summary of Table 11): induced the expression of GFP
Oc1cc(Cl)c(Cl)cc1Cl [(6), 2,4,5-trichlorophenol]				expression of GFP [2]: induced the expression of GFP
[CH3][Hg][Cl] [methylmercury chloride]	− (the number of the cells having a higher fluorescence than the control was under 1%)	− (the number of the cells having a higher fluorescence than the control was under 1%)	− (the number of the cells having a higher fluorescence than the control was under 1%)	
CdCl2 [(2)]	− (the number of the cells having a higher fluorescence than the control was under 1%)	− (the number of the cells having a higher fluorescence than the control was under 1%)	++ (2% or more)	expression of GFP [3]: induced the expression of GFP
CC(=O)O.Cc1nc(N)cc2[nH]c3ccccc3c12 [Trp-P-2 (acetate)]				Fluorescence [1]: − (key: −: the number of the cells having a higher fluorescence than the control was under 1%; +: between 1% and 2%; ++: 2% or more); Fluorescence [2]: ++ (key: −: the number of the cells having a higher fluorescence than the control was under 1%; +: between 1% and 2%; ++: 2% or more); expression of GFP [2]: induced the expression of GFP; Fluorescence [3]: − (key: −: the number of the cells having a higher fluorescence than the control was under 1%; +: between 1% and 2%; ++: 2% or more)
CCN(CC)C(=O)SCc1ccc(Cl)cc1 [S-4-Chlorobenzyl-N,N-diethylthiocarbamate]	− (the number of the cells having a higher fluorescence than the control was under 1%)	− (the number of the cells having a higher fluorescence than the control was under 1%)	− (the number of the cells having a higher fluorescence than the control was under 1%)	
Na2As [(1)]	− (the number of the cells having a higher fluorescence than the control was under 1%)	− (the number of the cells having a higher fluorescence than the control was under 1%)	++ (2% or more)	expression of GFP [3]: induced the expression of GFP
O=[N+]([O-])c1cc[n+]([O-])c2ccccc12 [(5), 4-nitroquinolin-N-oxide]				expression of GFP [2, 7]: induced the expression of GFP
[Cl][Ni][Cl] [nickel (II) chloride]				Fluorescence [1]: − (key: −: the number of the cells having a higher fluorescence than the control was under 1%; +: between 1% and 2%; ++: 2% or more); Fluorescence [2]: ++ (key: −: the number of the cells having a higher fluorescence than the control was under 1%; +: between 1% and 2%; ++: 2% or more); expression of GFP [2]: induced the expression of GFP; Fluorescence [3]: − (key: −: the number of the cells having a higher fluorescence than the control was under 1%; +: between 1% and 2%; ++: 2% or more)
CCCCC(CC)COC(=O)c1ccccc1C(=O)OCC(CC)CCCC (centres unmarked)	− (the number of the cells having a higher fluorescence than the control was under 1%)	− (the number of the cells having a higher fluorescence than the control was under 1%)	− (the number of the cells having a higher fluorescence than the control was under 1%)	
[K+].[K+].[O]=[Cr](=[O])([O-])[O][Cr](=[O])(=[O])[O-] [potassium bichromate]	− (the number of the cells having a higher fluorescence than the control was under 1%)	++ (2% or more)	− (the number of the cells having a higher fluorescence than the control was under 1%)	expression of GFP [2, 7]: induced the expression of GFP
γ-hexachlorocyclohexane [(7)]	− (the number of the cells having a higher fluorescence than the control was under 1%)	− (the number of the cells having a higher fluorescence than the control was under 1%)	− (the number of the cells having a higher fluorescence than the control was under 1%)	
C[S+](C)[O-] [(15), dimethylsulfoxide]				expression of GFP [2, 7]: induced the expression of GFP
manganese ethylenebis(dithiocarbamate) [(8)]	− (the number of the cells having a higher fluorescence than the control was under 1%)	++ (2% or more)		expression of GFP [2, 7]: induced the expression of GFP; expression of GFP [3]: induced the expression of GFP
